Measurements from PMC6172212, “Structural Analysis of Inhibitor Binding to CAMKK1 Identifies Features Necessary for Design of Specific Inhibitors” (Scientific Reports, 2018).
Counter-ions that a name gives are not always drawn.

Molecular target: T1, CAMKK1 kinase domain (CAMKK1-KD, Gln124-Lys411) (Homo sapiens, UniProt Q8N5S9)
T1 construct: The kinase domain (Gln124 to Lys411) was amplified using the primers; 6xHis (TEV-cleavable) (N, cleaved yes); made in house; host or cells: Escherichia coli BL21(DE3)-R3 co-expressing λ-phosphatase
Test: Differential scanning fluorimetry (DSF) screen of a kinase inhibitor library against CAMKK1-KD
Format: binding
Conditions: DSF, 1 μM CAMKK1-KD, compound 10 µM; mean and standard error from triplicate measurements
Method: DSF measurements were made in a 384-well plate.
The compounds, previously solubilized in DMSO, were used at 10 µM final concentration and 0.1% DMSO. Plates were sealed using optically clear films and transferred to a QuantStudio 6 qPCR instrument (Applied Biosystems). […] Protein in 0.1% DMSO was used as a reference.

T1 sequence (Q8N5S9 124-411): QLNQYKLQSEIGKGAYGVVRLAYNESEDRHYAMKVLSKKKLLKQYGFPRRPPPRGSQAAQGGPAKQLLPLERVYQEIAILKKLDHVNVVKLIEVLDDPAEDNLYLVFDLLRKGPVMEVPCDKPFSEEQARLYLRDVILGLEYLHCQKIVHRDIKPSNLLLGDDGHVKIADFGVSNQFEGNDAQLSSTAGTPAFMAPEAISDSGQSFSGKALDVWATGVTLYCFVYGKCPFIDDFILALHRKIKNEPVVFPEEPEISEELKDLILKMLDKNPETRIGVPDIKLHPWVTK

Row | ΔTm (°C) CAMKK1 [°C] | Molecule
1 | 11.5 ± 0.3 | COc1cc(N2CCC(N)CC2)ccc1Nc1ncc(Cl)c(-c2c[nH]c3ccccc23)n1 [AZD3463]

Same assay, conditions: DSF, 1 μM CAMKK1-KD, compound 10 µM; supplement

Row | Mean ΔTm (°C) | Molecule
2 | 4.1 | C=CC(=O)Nc1cccc(Sc2nc(Nc3ccc(N4CCN(C)CC4)cc3)ncc2Cl)c1 [WZ8040]
3 | 2.9 | O=C1Nc2cc(Br)ccc2/C1=C1/Nc2ccccc2/C1=N\O [BIO]
4 | 4.2 | COc1ccccc1-c1cc(Nc2cccc(CS(N)(=O)=O)c2)ncn1 [LDC000067]
5 | 5.8 | CS(=O)(=O)c1cccc(CNc2nc(Nc3ccc4c(c3)CCC(=O)N4)ncc2C(F)(F)F)c1 [PF-573228]
6 | 4.8 | O=C1NC(=O)/C(=C/c2ccc(-c3ccc(F)cc3O)o2)S1 [AS-252424]
7 | 5.6 | CN(c1ncccc1CNc1nc(Nc2ccc3c(c2)CC(=O)N3)ncc1C(F)(F)F)S(C)(=O)=O [PF-562271]
8 | 3.6 | Cc1cc(N2CCOCC2)cc2[nH]c(-c3c(NC[C@@H](O)c4cccc(Cl)c4)cc[nH]c3=O)nc12 [BMS-536924]
9 | 5.6 | O=C(NCc1cccc(O)c1)Nc1nc(-c2ccncc2)cs1 [RKI-1447]
10 | 3.6 | Cc1cnc(Nc2ccc(N3CCN(C)CC3)cc2)nc1Nc1cccc(S(=O)(=O)NC(C)(C)C)c1 [TG101209]
11 | 3.6 | CC(C)CCN1c2nc(Nc3cc(F)c(O)c(F)c3)ncc2N(C)C(=O)C1C (stereo not drawn) [BI-D1870]
12 | 5.4 | O=C1Nc2ccc(I)cc2/C1=C/c1cc(Br)c(O)c(Br)c1 [GW5074]
13 | 3.1 | C=CC(=O)Nc1cccc(Oc2nc(Nc3ccc(N4CCN(C)CC4)cc3)ncc2Cl)c1 [WZ3146]
14 | 2.7 | O=C1NC(=O)C(c2ccccc2[N+](=O)[O-])=C1Nc1ccc(O)c(Cl)c1 [SB415286]
15 | 3.0 | O=C(NCc1ccccc1)c1csc(Nc2ccncn2)n1 [Thiazovivin]
16 | 2.0 | COc1cc2c(Nc3ccc(NC(=O)c4ccccc4)cc3)ncnc2cc1OCCCN1CCOCC1 [ZM 447439]
17 | 2.0 | O=C(c1cccc(Cl)c1F)N1CCN(Cc2cccc(Nc3nccs3)n2)CC1 [MK-8745]
18 | 3.0 | O=C1NCCc2[nH]c(-c3ccncc3)cc21 [PHA-767491]
19 | 3.4 | CS(=O)(=O)O.Cn1cc(C2=C(c3cn(CCCSC(=N)N)c4ccccc34)C(=O)NC2=O)c2ccccc21 [Ro 31-8220 Mesylate]
20 | 4.4 | C=CC(=O)Nc1cccc(Nc2nc(Nc3ccc(NC4CN(CCF)C4)cc3OC)ncc2C(F)(F)F)c1 [CNX-2006]
21 | 5.2 | CN(c1ncccc1CNc1nc(Nc2ccc3c(c2)CC(=O)N3)ncc1C(F)(F)F)S(C)(=O)=O [PF-00562271]
22 | 5.0 | COc1cc2nccc(Oc3ccc(NC(=O)C4(C(=O)Nc5ccc(F)cc5)CC4)cc3)c2cc1OC [Cabozantinib (XL184), Cabozantinib]
23 | 3.0 | CNC(=O)c1ccccc1Nc1nc(Nc2ccc(N3CCOCC3)cc2OC)ncc1Cl [TAE226 (NVP-TAE226)]
24 | 5.2 | COc1ccc2c(Oc3ccc(NC(=O)c4c(C)n(CC(C)(C)O)n(-c5ccccc5)c4=O)nc3)ccnc2c1 [AMG-458]
25 | 3.4 | CN1CCC(CNc2ccc3ncc(-c4cccc(OC(F)(F)F)c4)n3n2)CC1 [SGI-1776 free base]

Row | Molecule | Mean ΔTm (°C)
26 | CN(C)CCCn1cc(C2=C(c3c[nH]c4ccccc34)C(=O)NC2=O)c2ccccc21 [GF109203X] | 2.4
27 | AZD4547 | 5.9
28 | O=c1[nH]c2ccc(Cl)cc2c(N[C@@H]2CN3CCC2CC3)c1-c1nc2ccccc2[nH]1 [CHIR-124] | 5.5

Same assay, conditions: DSF, 1 μM CAMKK1-KD, compound 10 µM; supplement; read-out: Mean ΔTm (°C)

Row | ΔTm at 10 µM [°C] | Molecule
29 | 4.6 | Cc1cc(Nc2cc(CN3CCOCC3)c3nc(C)c(Cc4ccc(Cl)cc4F)n3n2)n[nH]1 [LY2784544]
30 | 3.4 | C=CC(=O)Nc1cccc(Nc2nc(Nc3ccc(N4CCN(C(C)=O)CC4)cc3OC)ncc2C(F)(F)F)c1 [CO-1686 (AVL-301)]
31 | 3.4 | CN(C)C/C=C/C(=O)Nc1cc2c(Nc3ccc(F)c(Cl)c3)ncnc2cc1O[C@H]1CCOC1 [Afatinib (BIBW2992), Afatinib]
32 | 5.2 | Cc1[nH]c(/C=C2\C(=O)Nc3ccc(S(=O)(=O)Cc4c(Cl)cccc4Cl)cc32)c(C)c1C(=O)N1CCC[C@@H]1CN1CCCC1 [PHA-665752]
33 | 4.9 | Nc1nccc(Oc2ccc(NC(=O)c3c[nH]cc(-c4ccc(F)cc4)c3=O)cc2F)c1Cl [BMS-794833]
34 | 4.1 | COc1ccc(Cl)c(Nc2nc3ccccc3nc2NS(=O)(=O)c2cccc(NC(=O)C(C)(C)N)c2)c1 [XL147]
35 | 6.7 | CCN1CCN(Cc2ccc(Nc3ncc(F)c(-c4cc(F)c5nc(C)n(C(C)C)c5c4)n3)nc2)CC1 [LY2835219]
36 | 4.1 | CNC(=O)c1nn(C)c2c1C(C)(C)Cc1cnc(Nc3ccc(N4CCN(C)CC4)cc3)nc1-2 [Milciclib (PHA-848125), Milciclib]
37 | 3 | CC(C)CC(=O)Nc1[nH]nc2c1CN(C(=O)C1CCN(C)CC1)C2(C)C [PHA-793887]
38 | 5.6 | O=C(NCCCNc1nc(Nc2cccc(NC(=O)N3CCCC3)c2)ncc1I)c1cccs1 [BX-795]
39 | 5.6 | O=C(Nc1c[nH]nc1-c1nc2ccc(CN3CCOCC3)cc2[nH]1)NC1CC1 [AT9283]
40 | 3.4 | Cc1ncc(-c2ccnc(Nc3ccc(S(C)(=O)=O)cc3)n2)n1C(C)C [AZD5438]
41 | 3.4 | Cc1cnc(Nc2ccc(OCCN3CCCC3)cc2)nc1Nc1cccc(S(=O)(=O)NC(C)(C)C)c1 [TG101348 (SAR302503)]
42 | 5.2 | COc1cc2nccc(Oc3ccc(NC(=O)C4(C(=O)Nc5ccc(F)cc5)CC4)cc3)c2cc1OC [Cabozantinib malate (XL184), Cabozantinib malate]
43 | 3.2 | CCOc1cc2ncc(C#N)c(Nc3ccc(F)c(Cl)c3)c2cc1NC(=O)/C=C/CN(C)C [Pelitinib (EKB-569), Pelitinib]
44 | 2.6 | Cc1cc(Nc2cc(N3CCN(C)CC3)nc(/C=C/c3ccccc3)n2)n[nH]1 [ENMD-2076]
45 | 4.4 | Cc1cc(Nc2nc(N[C@@H](C)c3ccc(F)cc3)c(C#N)cc2F)[nH]n1 [AZ 960]
46 | 3.9 | Cc1cc(Nc2ncc(Cl)c(Nc3ccccc3S(=O)(=O)C(C)C)n2)c(OC(C)C)cc1C1CCNCC1 [LDK378]
47 | 3.6 | NC(=O)Nc1cc(-c2cccc(F)c2)sc1C(=O)N[C@H]1CCCNC1 [AZD7762]
48 | 3.8 | Cc1cc(Nc2nc(N[C@@H](C)c3ncc(F)cn3)ncc2Cl)n[nH]1 [AZD1480]
49 | 2.6 | C=CC(=O)Nc1cc(Nc2nccc(-c3cn(C)c4ccccc34)n2)c(OC)cc1N(C)CCN(C)C [AZD9291]
50 | 4.6 | Cc1nc(Nc2[nH]nc3c2CN(C(=O)N[C@H](CN(C)C)c2ccccc2)C3(C)C)c2sccc2n1 [PF-3758309]
51 | 2.3 | COc1cc2c(N3CCN(C(=O)Nc4ccc(OC(C)C)cc4)CC3)ncnc2cc1OCCCN1CCCCC1 [Tandutinib (MLN518), Tandutinib]

Row | Molecule | ΔTm at 10 µM [°C]
52 | O=c1c(O)c(-c2ccc(O)c(O)c2)oc2cc(O)cc(O)c12 [Quercetin] | 4.9

Same assay, conditions: read-out: Mean ΔTm (°C)

Row | Molecule | ΔTm at 10 µM [°C]
53 | O=C(Nc1cccc(Cl)c1)Nc1ncc(CCNc2ncnc3ccsc23)s1 [SNS-314 Mesylate] | 4.5

Same assay, conditions: read-out: ΔTm (°C) CAMKK1

Row | Molecule | ΔTm at 10 µM [°C]
54 | Cc1ccc(C(=O)Nc2ccc(CN3CCN(C)CC3)c(C(F)(F)F)c2)cc1C#Cc1cnc2cccnn12 [Ponatinib (AP24534), Ponatinib] | 4.4 ± 3.1
